From ChEMBL document CHEMBL5465560, “Selectivity Literature for EUbOPEN Chemogenomic Library” (2024) come the findings set out here.

A value given as a limit tells only on which side of the number the result lay.

Series [1] concerns the target Serine/threonine-protein kinase VRK2 (Homo sapiens) (UniProt Q86Y07). The series is described as follows: Selectivity interaction (KinomeScan (DiscoverX)) EUB0000229b VRK2. To be noted: at 10 µM.
Series [2] deals with Cyclin-dependent kinase 18 (Homo sapiens) (UniProt Q07002). Description: Selectivity interaction (KinomeScan (DiscoverX)) EUB0000229b CDK18. To be noted: at 10 µM.
The target in series [3] is T1, Serine/threonine-protein kinase MAK (Homo sapiens) (UniProt P20794).
T1 sequence (whole entry): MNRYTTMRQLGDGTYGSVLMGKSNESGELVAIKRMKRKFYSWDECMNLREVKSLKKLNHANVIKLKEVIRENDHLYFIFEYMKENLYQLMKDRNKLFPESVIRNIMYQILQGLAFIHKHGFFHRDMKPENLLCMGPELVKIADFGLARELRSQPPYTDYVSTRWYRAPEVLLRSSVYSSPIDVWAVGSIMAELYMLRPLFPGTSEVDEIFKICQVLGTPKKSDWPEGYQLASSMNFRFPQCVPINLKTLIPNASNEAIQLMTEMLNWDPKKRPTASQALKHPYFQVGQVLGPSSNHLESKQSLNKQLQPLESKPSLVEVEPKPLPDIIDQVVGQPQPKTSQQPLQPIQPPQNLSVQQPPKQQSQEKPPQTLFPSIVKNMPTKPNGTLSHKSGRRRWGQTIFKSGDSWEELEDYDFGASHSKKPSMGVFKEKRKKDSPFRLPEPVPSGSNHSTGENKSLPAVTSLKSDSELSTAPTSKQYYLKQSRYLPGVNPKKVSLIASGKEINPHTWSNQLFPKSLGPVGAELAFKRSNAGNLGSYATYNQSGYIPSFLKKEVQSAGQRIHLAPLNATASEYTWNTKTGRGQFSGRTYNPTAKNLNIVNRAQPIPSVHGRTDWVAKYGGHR
Description: Selectivity interaction (KinomeScan (DiscoverX)) EUB0000229b MAK. To be noted: at 10 µM.

Series [4] addresses PXR (NR1I2) (Homo sapiens, UniProt O75469). Description: Selectivity interaction (Panel of kinases, GPCRs, ion channels and transporters (enzymatic assay)) EUB0000266bCl NR1I2.
The target in series [5] is T2, MAP/microtubule affinity-regulating kinase 4 (Homo sapiens) (UniProt Q96L34).
T2 sequence (whole entry): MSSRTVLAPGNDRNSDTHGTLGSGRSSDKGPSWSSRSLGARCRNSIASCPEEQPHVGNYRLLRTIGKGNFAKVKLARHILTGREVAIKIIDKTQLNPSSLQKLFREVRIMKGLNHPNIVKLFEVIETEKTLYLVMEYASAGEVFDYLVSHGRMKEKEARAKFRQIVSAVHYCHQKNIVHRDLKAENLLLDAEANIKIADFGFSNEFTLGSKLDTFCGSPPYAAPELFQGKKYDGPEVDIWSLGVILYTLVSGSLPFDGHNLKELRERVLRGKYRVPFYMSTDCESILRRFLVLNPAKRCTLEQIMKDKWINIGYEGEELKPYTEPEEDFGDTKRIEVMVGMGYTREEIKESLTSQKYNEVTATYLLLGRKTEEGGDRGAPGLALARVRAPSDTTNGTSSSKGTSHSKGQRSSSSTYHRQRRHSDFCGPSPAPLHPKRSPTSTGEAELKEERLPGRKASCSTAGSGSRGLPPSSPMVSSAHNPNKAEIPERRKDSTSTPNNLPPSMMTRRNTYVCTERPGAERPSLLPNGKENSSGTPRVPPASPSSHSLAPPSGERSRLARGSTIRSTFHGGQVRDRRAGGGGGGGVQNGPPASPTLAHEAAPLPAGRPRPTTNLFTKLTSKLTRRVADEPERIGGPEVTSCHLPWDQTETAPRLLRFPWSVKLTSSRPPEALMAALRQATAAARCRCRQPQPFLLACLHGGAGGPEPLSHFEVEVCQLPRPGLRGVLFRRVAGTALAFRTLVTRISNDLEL
The series is described as follows: Selectivity interaction (ActivX KiNativ screen (kinase selectivity in THP-1 cell lysates)) EUB0000639a MARK4. It is filed as subcellular. To be noted: lysate.

For series [6], the target named is T3, Mitogen-activated protein kinase 9 (Homo sapiens, UniProt P45984). The series is described as follows: Selectivity interaction (Kinase panel (Invitrogen)) EUB0000639a MAPK9. To be noted: at 200 nM.
In series [7] the target is T3, Mitogen-activated protein kinase 9. To be noted: at 10 µM.
In series [8] the target is Glycogen synthase kinase-3 beta (Homo sapiens, UniProt P49841). To be noted: at 10 µM.
The target in series [9] is T4, Peripheral plasma membrane protein CASK (Homo sapiens) (UniProt O14936).
T4 sequence (whole entry): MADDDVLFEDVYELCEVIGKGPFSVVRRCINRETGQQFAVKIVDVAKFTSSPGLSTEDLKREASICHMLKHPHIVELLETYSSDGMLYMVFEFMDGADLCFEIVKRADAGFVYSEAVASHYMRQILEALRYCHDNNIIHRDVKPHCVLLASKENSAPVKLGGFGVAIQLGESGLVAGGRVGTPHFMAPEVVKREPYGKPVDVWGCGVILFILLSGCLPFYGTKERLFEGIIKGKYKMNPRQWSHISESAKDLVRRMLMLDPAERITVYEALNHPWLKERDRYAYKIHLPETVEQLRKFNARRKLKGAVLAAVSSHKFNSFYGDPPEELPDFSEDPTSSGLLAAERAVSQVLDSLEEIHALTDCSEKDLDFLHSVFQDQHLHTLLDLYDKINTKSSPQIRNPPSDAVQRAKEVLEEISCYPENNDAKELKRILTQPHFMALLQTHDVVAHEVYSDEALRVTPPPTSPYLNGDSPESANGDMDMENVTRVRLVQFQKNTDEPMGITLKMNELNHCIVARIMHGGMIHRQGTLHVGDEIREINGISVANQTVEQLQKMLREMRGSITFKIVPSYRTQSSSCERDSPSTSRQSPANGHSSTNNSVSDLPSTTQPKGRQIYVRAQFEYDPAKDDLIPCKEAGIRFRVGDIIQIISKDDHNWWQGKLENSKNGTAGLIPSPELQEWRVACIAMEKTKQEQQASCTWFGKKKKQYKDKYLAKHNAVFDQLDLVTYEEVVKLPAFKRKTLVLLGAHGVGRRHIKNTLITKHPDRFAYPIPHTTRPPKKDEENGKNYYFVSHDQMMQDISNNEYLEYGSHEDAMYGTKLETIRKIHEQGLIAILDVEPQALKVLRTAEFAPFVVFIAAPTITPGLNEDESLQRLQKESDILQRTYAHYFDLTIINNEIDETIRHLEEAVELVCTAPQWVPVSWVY
The series is described as follows: Selectivity interaction (KinomeScan (DiscoverX)) EUB0000092b CASK. To be noted: at 10 µM.

The target in series [10] is Serine/threonine-protein kinase PLK1 (Homo sapiens, UniProt P53350). The series is described as follows: Selectivity interaction (KinomeScan (DiscoverX)) EUB0000092b PLK1. To be noted: at 10 µM.
Series [11] has as its target Ephrin type-A receptor 7 (Homo sapiens) (UniProt Q15375). The series is described as follows: Selectivity interaction (Kinase panel (DSF assay)) EUB0001559a EPHA7.

T3 sequence (P45984 whole entry, looked up): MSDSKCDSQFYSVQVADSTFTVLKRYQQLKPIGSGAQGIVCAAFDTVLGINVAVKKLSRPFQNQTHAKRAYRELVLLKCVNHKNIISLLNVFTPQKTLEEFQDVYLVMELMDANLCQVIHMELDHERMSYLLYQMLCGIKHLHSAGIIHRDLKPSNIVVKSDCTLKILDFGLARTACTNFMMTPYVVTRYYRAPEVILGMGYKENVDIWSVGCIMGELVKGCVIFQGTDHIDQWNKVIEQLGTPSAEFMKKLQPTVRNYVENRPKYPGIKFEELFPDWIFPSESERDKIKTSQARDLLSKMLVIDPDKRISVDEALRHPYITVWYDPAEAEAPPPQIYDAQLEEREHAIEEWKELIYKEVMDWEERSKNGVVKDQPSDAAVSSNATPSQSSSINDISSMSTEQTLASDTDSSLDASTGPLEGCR
Chain of Cyclin-dependent kinase 18 (Homo sapiens) (Q07002 whole entry): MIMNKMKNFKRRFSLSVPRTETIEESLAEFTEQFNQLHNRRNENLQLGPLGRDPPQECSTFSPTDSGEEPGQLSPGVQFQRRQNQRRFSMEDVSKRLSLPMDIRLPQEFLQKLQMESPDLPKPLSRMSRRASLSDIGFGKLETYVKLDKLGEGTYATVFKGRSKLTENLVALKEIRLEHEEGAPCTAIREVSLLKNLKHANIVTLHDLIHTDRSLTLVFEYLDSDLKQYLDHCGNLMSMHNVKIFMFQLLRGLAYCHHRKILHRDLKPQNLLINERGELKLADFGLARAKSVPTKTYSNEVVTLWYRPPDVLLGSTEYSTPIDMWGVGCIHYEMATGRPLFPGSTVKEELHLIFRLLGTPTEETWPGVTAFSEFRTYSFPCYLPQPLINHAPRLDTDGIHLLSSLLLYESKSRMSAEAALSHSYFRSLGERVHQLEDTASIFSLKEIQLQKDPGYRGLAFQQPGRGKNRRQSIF
Chain of Glycogen synthase kinase-3 beta (P49841 whole entry, looked up): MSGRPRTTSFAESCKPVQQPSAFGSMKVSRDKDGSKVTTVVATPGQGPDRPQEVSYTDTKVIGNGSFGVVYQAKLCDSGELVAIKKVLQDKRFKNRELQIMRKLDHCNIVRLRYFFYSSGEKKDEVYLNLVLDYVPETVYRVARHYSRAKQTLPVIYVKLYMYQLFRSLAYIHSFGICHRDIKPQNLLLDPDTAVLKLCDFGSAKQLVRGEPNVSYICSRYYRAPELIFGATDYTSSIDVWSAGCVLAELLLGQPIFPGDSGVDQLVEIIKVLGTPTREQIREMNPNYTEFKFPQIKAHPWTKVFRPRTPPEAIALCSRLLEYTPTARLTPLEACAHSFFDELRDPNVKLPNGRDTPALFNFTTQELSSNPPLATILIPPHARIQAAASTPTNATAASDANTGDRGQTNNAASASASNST
Chain of Serine/threonine-protein kinase PLK1 (P53350 whole entry): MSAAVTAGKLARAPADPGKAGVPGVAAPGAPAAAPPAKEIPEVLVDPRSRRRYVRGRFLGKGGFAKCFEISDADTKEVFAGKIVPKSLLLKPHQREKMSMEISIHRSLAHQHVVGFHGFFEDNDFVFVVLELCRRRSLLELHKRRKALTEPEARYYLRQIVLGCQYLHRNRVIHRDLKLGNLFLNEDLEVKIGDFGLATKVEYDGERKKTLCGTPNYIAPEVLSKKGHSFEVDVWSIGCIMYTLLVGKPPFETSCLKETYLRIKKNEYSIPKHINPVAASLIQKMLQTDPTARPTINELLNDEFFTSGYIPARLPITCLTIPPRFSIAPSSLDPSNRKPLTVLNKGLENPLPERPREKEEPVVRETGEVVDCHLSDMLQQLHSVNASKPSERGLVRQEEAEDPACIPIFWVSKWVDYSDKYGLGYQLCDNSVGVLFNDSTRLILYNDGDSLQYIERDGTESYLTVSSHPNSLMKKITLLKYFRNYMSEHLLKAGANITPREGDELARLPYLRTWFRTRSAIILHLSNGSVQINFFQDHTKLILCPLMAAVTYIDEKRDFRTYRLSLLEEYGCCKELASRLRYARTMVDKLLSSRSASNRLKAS
Chain of PXR (NR1I2) (O75469 whole entry): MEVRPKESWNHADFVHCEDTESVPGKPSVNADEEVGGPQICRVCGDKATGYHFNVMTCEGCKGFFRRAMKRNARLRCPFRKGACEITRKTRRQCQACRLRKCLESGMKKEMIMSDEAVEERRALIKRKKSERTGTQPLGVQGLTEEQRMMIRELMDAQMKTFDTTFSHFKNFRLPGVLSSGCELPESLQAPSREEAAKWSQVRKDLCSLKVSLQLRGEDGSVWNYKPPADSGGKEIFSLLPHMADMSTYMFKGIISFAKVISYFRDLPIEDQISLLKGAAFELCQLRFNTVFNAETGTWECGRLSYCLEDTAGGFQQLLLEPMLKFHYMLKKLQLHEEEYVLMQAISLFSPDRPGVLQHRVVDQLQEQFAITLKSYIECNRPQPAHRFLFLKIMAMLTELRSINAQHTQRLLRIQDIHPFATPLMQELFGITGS
Chain of Serine/threonine-protein kinase VRK2 (Homo sapiens) (Q86Y07 whole entry): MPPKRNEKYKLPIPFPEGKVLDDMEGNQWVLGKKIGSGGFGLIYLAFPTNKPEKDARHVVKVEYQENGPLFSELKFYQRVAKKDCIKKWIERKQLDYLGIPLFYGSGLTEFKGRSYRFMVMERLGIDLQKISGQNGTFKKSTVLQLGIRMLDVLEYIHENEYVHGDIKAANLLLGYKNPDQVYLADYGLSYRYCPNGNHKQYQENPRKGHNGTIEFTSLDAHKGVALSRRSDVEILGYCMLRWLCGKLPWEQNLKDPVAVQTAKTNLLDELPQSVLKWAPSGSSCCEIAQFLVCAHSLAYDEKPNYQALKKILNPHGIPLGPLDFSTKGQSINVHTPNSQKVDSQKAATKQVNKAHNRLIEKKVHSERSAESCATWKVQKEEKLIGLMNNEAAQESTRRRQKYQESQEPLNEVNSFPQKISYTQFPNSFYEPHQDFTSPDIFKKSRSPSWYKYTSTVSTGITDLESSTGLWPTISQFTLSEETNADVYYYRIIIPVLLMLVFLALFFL
Chain of Ephrin type-A receptor 7 (Homo sapiens) (Q15375 28-998 limits assumed): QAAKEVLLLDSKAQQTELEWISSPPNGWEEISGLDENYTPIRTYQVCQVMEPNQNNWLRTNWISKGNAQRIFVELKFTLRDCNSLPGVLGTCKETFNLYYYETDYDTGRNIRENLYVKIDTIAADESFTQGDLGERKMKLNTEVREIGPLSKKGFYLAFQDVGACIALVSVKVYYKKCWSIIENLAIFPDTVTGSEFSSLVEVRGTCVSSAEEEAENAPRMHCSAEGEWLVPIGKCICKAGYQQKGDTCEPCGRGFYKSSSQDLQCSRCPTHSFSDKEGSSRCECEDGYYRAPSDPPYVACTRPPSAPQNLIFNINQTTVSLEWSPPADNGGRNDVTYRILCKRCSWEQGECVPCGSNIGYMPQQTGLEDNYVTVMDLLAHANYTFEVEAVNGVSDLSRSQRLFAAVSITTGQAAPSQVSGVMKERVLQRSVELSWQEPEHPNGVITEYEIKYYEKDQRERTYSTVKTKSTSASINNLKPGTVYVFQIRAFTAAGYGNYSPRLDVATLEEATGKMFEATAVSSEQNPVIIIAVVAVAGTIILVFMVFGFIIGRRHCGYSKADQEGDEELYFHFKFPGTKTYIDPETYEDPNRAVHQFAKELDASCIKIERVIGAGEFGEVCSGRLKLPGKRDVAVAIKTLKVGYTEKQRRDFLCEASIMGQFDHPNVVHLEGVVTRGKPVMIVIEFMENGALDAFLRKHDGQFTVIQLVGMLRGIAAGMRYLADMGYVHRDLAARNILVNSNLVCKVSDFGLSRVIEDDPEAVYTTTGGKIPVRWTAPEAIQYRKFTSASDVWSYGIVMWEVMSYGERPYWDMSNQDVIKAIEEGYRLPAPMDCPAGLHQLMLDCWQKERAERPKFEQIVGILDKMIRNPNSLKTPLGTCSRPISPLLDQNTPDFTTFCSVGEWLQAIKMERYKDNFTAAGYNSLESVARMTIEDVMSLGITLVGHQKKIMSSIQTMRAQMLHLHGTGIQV

With `COc1cc(N(C)c2ccnc3ccc(C(F)(F)F)cc23)cc(OC)c1OC`, the % binding in series [1] stood at 85%; in [2], 91%; in series [3], 79%.

`CCn1c(-c2nc3cc(C(=O)N4CCCC(N)C4)ccc3n2C)cc2ccccc21` (stereo not given): the XC50 in series [4] is over 50.1 µM.

`CC[C@@H]1[C@H](F)C(=O)N[C@@H]1COc1nccc2cc(C(N)=O)c(OC)cc12` [ZIMLOVISERTIB]: the % of inhibition in series [5] (at 0.01 µM) was determined as 10.4%; in series [5] (at 0.04 µM), 9.1%; in series [5] (at 0.2 µM) it was 19.8%; in series [5] (at 1 µM), 21.6%; in [5] (at 5 µM), 36.9%; in series [6], 0.603%.

As to `CCN(CC)CCCCNc1ncc2cc(-c3cc(OC)cc(OC)c3)c(NC(=O)NC(C)(C)C)nc2n1`, the % of control in [7] and in series [8] was 100% throughout.

`CCC(=O)N1CCN(c2ccc(-n3c(=O)ccc4cnc5ccc(-c6cnc7ccccc7c6)cc5c43)cc2C(F)(F)F)CC1`: the % of control came to 100% in series [9] and 85% in series [10].

Molecule `CN(C(=O)c1cnn2cccnc12)c1cc2c(cc1N1CCOCC1)C(=O)N(C[C@@H](F)C(C)(C)O)C2` registered a dTM in series [11] of 0.1 K.
